Laboratory results published in patent US11591336B2 (Relay Therapeutics, Inc., priority 2017, dated 2023).
Where a name gives a salt, the structure may show the parent alone.

What follows are compounds tested against SHP2 (Homo sapiens (Human), UniProt Q06124) (assay: SHP2 Allosteric Inhibition Assay (DiFMUP prompt fluorescence)). Conditions: 0.25 nM SHP2 activated with 0.5 μM peptide IRS1_pY1172(dPEG8)pY1222; substrate DiFMUP 100 μM; 25° C.
Type: biochemical

IC50 | Structure (SMILES)
< 1000 nM | CC1(CN)CCN(c2cnc3c(N4CCC(O)c5ccccc54)n[nH]c3n2)CC1 (centres unmarked) [Compound 119, 1-(6-(4-(aminomethyl)-4-methylpiperidin-1-yl)-1H-pyrazolo[3,4-b]pyrazin-3-yl)-1,2,3,4-tetrahydroquinolin-4-ol]
< 1000 nM | Cc1c(C#N)ccc2c1CCCN2c1n[nH]c2nc(N3CCC(C)(CN)CC3)cnc12 [Compound 120]
< 1000 nM | Cn1cc(-c2cccc3c2CCCN3c2n[nH]c3nc(N4CCC(C)(CN)CC4)cnc23)cn1 [Compound 121]
< 1000 nM | CC1(CN)CCN(c2cnc3c(N4CCCc5c4ccc(C#N)c5C4CC4)n[nH]c3n2)CC1 [Compound 122]
< 1000 nM | CC1CN(c2n[nH]c3nc(N4CCC(C)(CN)CC4)cnc23)c2ccccc21 (centres unmarked) [Compound 123]
< 1000 nM | CC1(CN)CCN(c2cnc3c(N4CCc5ncccc54)n[nH]c3n2)CC1 [Compound 124]
1000 to 10000 nM | CC1(CN)CCN(c2cnc3c(N4CCc5cnccc54)n[nH]c3n2)CC1 [Compound 125]
< 1000 nM | CC1(CN)CCN(c2cnc3c(N4CCCc5nc(C#N)ccc54)n[nH]c3n2)CC1 [Compound 126]
< 1000 nM | CN1CCN(c2n[nH]c3nc(N4CCC(C)(CN)CC4)cnc23)c2ccccc21 [Compound 127]
< 1000 nM | CC1(CN)CCN(c2cnc3c(N4CCCc5c(Cl)cccc54)n[nH]c3n2)CC1 [Compound 130]
< 1000 nM | Cn1cc(-c2c(C#N)ccc3c2CCCN3c2n[nH]c3nc(N4CCC(C)(CN)CC4)cnc23)cn1 [Compound 131]
< 1000 nM | CC1(CN)CCN(c2cnc3c(N4CCCc5c4ccnc5Cl)n[nH]c3n2)CC1 [Compound 132]
< 1000 nM | CC1(CN)CCN(c2cnc3c(N4CCc5cc(C#N)ccc54)n[nH]c3n2)CC1 [Compound 133]
< 1000 nM | C[C@H]1Cc2ccccc2N1c1n[nH]c2nc(N3CCC(C)(CN)CC3)cnc12 [Compound 134]
< 1000 nM | C[C@@H]1Cc2ccccc2N1c1n[nH]c2nc(N3CCC(C)(CN)CC3)cnc12 [Compound 135]
< 1000 nM | NS(=O)(=O)C1CCCN(c2cnc3c(N4CCCc5ncccc54)n[nH]c3n2)C1 (centres unmarked) [Compound 137]
< 1000 nM | OCC1CCCCN1c1cnc2c(N3CCCc4ncccc43)n[nH]c2n1 (centres unmarked) [Compound 138]
< 1000 nM | c1ccc(CC2CCCN(c3cnc4c(N5CCCc6ncccc65)n[nH]c4n3)C2)cc1 (centres unmarked) [Compound 139]
≥ 10000 nM | c1cncc(COC2CCN(c3cnc4c(N5CCCc6ncccc65)n[nH]c4n3)CC2)c1 [Compound 140]
≥ 10000 nM | CC1(C)CCN(c2cnc3c(N4CCCc5ncccc54)n[nH]c3n2)CC1 [Compound 141]
≥ 10000 nM | c1ccc(OC2CCCN(c3cnc4c(N5CCCc6ncccc65)n[nH]c4n3)C2)cc1 (centres unmarked) [Compound 142]

IC50 | Structure (SMILES)
≥ 10000 nM | OC1CCCN(c2cnc3c(N4CCCc5ncccc54)n[nH]c3n2)C1 (centres unmarked) [Compound 143]
≥ 10000 nM | c1ccc(CC2CCCN2c2cnc3c(N4CCCc5ncccc54)n[nH]c3n2)cc1 (centres unmarked) [Compound 144]
≥ 10000 nM | CC1(CO)CCN(c2cnc3c(N4CCCc5ncccc54)n[nH]c3n2)CC1 [Compound 145]
≥ 10000 nM | c1ccc(CC2CCN(c3cnc4c(N5CCCc6ncccc65)n[nH]c4n3)C2)cc1 (centres unmarked) [Compound 146]
≥ 10000 nM | c1ccc(C2CCCN2c2cnc3c(N4CCCc5ncccc54)n[nH]c3n2)cc1 (centres unmarked) [Compound 147]
≥ 10000 nM | CC1CCCCN1c1cnc2c(N3CCCc4ncccc43)n[nH]c2n1 (centres unmarked) [Compound 148]
≥ 10000 nM | NC(=O)C1CCCN(c2cnc3c(N4CCCc5ncccc54)n[nH]c3n2)C1 (centres unmarked) [Compound 149]
≥ 10000 nM | c1ccc(C2CCN(c3cnc4c(N5CCCc6ncccc65)n[nH]c4n3)C2)cc1 (centres unmarked) [Compound 151]
≥ 10000 nM | c1ccc(C2CCCN(c3cnc4c(N5CCCc6ncccc65)n[nH]c4n3)C2)cc1 (centres unmarked) [Compound 152]
≥ 10000 nM | CCC1(C)CCN(c2cnc3c(N4CCCc5ncccc54)n[nH]c3n2)CC1 [Compound 153]
≥ 10000 nM | c1cnc2c(c1)N(c1n[nH]c3nc(N4CCCCC4)cnc13)CCC2 [Compound 155]
≥ 10000 nM | c1cncc(COC2CCCN(c3cnc4c(N5CCCc6ncccc65)n[nH]c4n3)C2)c1 (centres unmarked) [Compound 156]
1000 to 10000 nM | NC(=O)C1CCN(c2cnc3c(N4CCCc5ncccc54)n[nH]c3n2)CC1 [Compound 157]
≥ 10000 nM | NC(=O)NC1CCN(c2cnc3c(N4CCCc5ncccc54)n[nH]c3n2)CC1 [Compound 160]
≥ 10000 nM | c1ccc(CC2CCCCN2c2cnc3c(N4CCCc5ncccc54)n[nH]c3n2)cc1 (centres unmarked) [Compound 161]
≥ 10000 nM | c1ccc(C2CCCCN2c2cnc3c(N4CCCc5ncccc54)n[nH]c3n2)cc1 (centres unmarked) [Compound 162]
< 1000 nM | CC1(CN)CCN(c2cnc3c(N4CCOc5ccccc54)n[nH]c3n2)CC1 [Compound 163]
< 1000 nM | CC1(CN)CCN(c2cnc3c(N4CCc5c(C#N)cccc54)n[nH]c3n2)CC1 [Compound 164]
< 1000 nM | CC1CCN(c2n[nH]c3nc(N4CCC(C)(CN)CC4)cnc23)c2ccc(-c3ncn[nH]3)cc21 (centres unmarked) [Compound 165]
< 1000 nM | CC1(CNC(=O)OCCSSCCOC(=O)NCC2(C)CCN(c3cnc4c(N5CCCc6ncccc65)n[nH]c4n3)CC2)CCN(c2cnc3c(N4CCCc5ncccc54)n[nH]c3n2)CC1 [Compound 166, disulfanediylbis(ethane-2,1-diyl) bis(((1-(3-(3,4-dihydro-1,5-naphthyridin-1(2H)-yl)-1H-pyrazolo[3,4-b]pyrazin-6-yl)-4-methylpiperidin-4-yl)methyl)carbamate)]
1000 to 10000 nM | NC[C@H]1CCN(c2cnc3c(N4CCCc5ncccc54)n[nH]c3n2)[C@H](c2ccccc2)C1 [Compound 167]

IC50 | Structure (SMILES)
1000 to 10000 nM | NC[C@@H]1CCN(c2cnc3c(N4CCCc5ncccc54)n[nH]c3n2)[C@@H](c2ccccc2)C1 [Compound 168]
< 1000 nM | CC1c2ccccc2CCN1c1n[nH]c2nc(N3CCC(C)(CN)CC3)cnc12 (centres unmarked) [Compound 169]
< 1000 nM | C[C@H]1c2ccccc2CN1c1n[nH]c2nc(N3CCC(C)(CN)CC3)cnc12 [Compound 170]
1000 to 10000 nM | CC1CCN(c2n[nH]c3nc(N4CCC(CN)(CC(=O)O)CC4)cnc23)c2cccnc21 (centres unmarked) [Compound 171, 2-[4-(aminomethyl)-1-[3-(4-methyl-1,2,3,4-tetrahydro-1,5-naphthyridin-1-yl)-1H-pyrazolo[3,4-b]pyrazin-6-yl]piperidin-4-yl]acetic acid]
< 1000 nM | CC1(CN)CCN(c2cnc3c(N4CCCc5cc(-c6ncon6)ccc54)n[nH]c3n2)CC1 [Compound 172, (1-(3-(6-(1,2,4-oxadiazol-3-yl)-3,4-dihydroquinolin-1(2H)-yl)-1H-pyrazolo[3,4-b]pyrazin-6-yl)-4-methylpiperidin-4-yl)methanamine]
< 1000 nM | CC1(CN)CCN(c2cnc3c(N4CCc5c(-c6nccs6)cccc54)n[nH]c3n2)CC1 [Compound 173]
≥ 10000 nM | COC(=O)NCC1(C)CCN(c2cnc3c(N4CCCc5cc(C#N)ccc54)n[nH]c3n2)CC1 [Compound 174, methyl ((1-(3-(6-cyano-3,4-dihydroquinolin-1(2H)-yl)-1H-pyrazolo[3,4-b]pyrazin-6-yl)-4-methylpiperidin-4-yl)methyl)carbamate]
< 1000 nM | CC1(CN)CCN(c2cnc3c(N4CCCc5nc(C(N)=O)ccc54)n[nH]c3n2)CC1 [Compound 175, 5-(6-(4-(aminomethyl)-4-methylpiperidin-1-yl)-1H-pyrazolo[3,4-b]pyrazin-3-yl)-5,6,7,8-tetrahydro-1,5-naphthyridine-2-carboxamide]
< 1000 nM | NCC1(CN)CCN(c2cnc3c(N4CCCc5ncccc54)n[nH]c3n2)CC1 [Compound 177, 1-[4-(aminomethyl)-1-[3-(1,2,3,4-tetrahydro-1,5-naphthyridin-1-yl)-1H-pyrazolo[3,4-b]pyrazin-6-yl]piperidin-4-yl]methanamine dihydrochloride]
1000 to 10000 nM | NC(C(=O)O)C1CCN(c2cnc3c(N4CCCc5ncccc54)n[nH]c3n2)CC1 (centres unmarked) [Compound 178, 2-amino-2-{1-[3-(1,2,3,4-tetrahydro-1,5-naphthyridin-1-yl)-1H-pyrazolo[3,4-b]pyrazin-6-yl]piperidin-4-yl}acetic acid dihydrochloride]
< 1000 nM | NCC1(N)CCN(c2cnc3c(N4CCCc5ncccc54)n[nH]c3n2)CC1 [Compound 179]
< 1000 nM | NCC1(C(N)=O)CCN(c2cnc3c(N4CCCc5ncccc54)n[nH]c3n2)CC1 [Compound 180, 4-(aminomethyl)-1-(3-(3,4-dihydro-1,5-naphthyridin-1(2H)-yl)-1H-pyrazolo[3,4-b]pyrazin-6-yl)piperidine-4-carboxamide]
< 1000 nM | CC1(CN)CCN(c2cnc3c(N4CCC(C(F)F)c5cc(C#N)ccc54)n[nH]c3n2)CC1 (centres unmarked) [Compound 181, 1-{6-[4-(aminomethyl)-4-methylpiperidin-1-yl]-1H-pyrazolo[3,4-b]pyrazin-3-yl}-4-(difluoromethyl)-1,2,3,4-tetrahydroquinoline-6-carbonitrile]
< 1000 nM | Cn1cc(-c2ccc3c(n2)CCCN3c2n[nH]c3nc(N4CCC(C)(CN)CC4)cnc23)cn1 [Compound 182]
< 1000 nM | C[C@H]1CCN(c2n[nH]c3nc(N4CCC(C)(CN)CC4)cnc23)c2ccc(-c3ncon3)cc21 [Compound 183, 1-(4-methyl-1-{3-[(4S)-4-methyl-6-(1,2,4-oxadiazol-3-yl)-1,2,3,4-tetrahydroquinolin-1-yl]-1H-pyrazolo[3,4-b]pyrazin-6-yl}piperidin-4-yl)methanamine]
< 1000 nM | CC1(CN)CCN(c2cnc3c(N4CCCc5c4cccc5S(C)(=O)=O)n[nH]c3n2)CC1 [Compound 185]
< 1000 nM | CN1CCN(c2n[nH]c3nc(N4CCC(C)(CN)CC4)cnc23)c2cccnc21 [Compound 186]
< 1000 nM | CC(=O)N1CCN(c2n[nH]c3nc(N4CCC(C)(CN)CC4)cnc23)c2ccc(C#N)cc21 [Compound 187]
< 1000 nM | Cn1cc(-c2ccc3c(n2)OCCN3c2n[nH]c3nc(N4CCC(C)(CN)CC4)cnc23)cn1 [Compound 188]

Structure (SMILES) | IC50
NC[C@@H]1C[C@H]2CC[C@@H](C1)N2c1cnc2c(N3CCCc4ncccc43)n[nH]c2n1 [Compound 150] | < 1000 nM
